This is an account of results in patent US5028609A, “Alkyl diamine derivatives” (Alkaloida Vegyeszeti Gyar, priority 1983, dated 1991).

Bounds are passed on as bounds.

For data set [1], the system named is aconitine arrhythmia on rats. Kind of data set: preventive aconitine arrhythmia test on rats. It is filed as in vivo, rats of Wistar strain. To be noted: for arrhythmia appearance time: ± S.E., 30 min monitoring. How it is done:
The antiarrhythmic activity of the compounds of the Formula I was compared in a preventive aconitine arrhythmia test on rats as follows:
rats of Wistar strain weighing 200 to 250 g. were narcotized i.p. with 1.25 g./kg. of urethane and their ECG was registered by a Hellige equipment by II standard limb head.
Arrhythmia was induced by an i.v. infusion of 30 /ug/kg. aconitine nitrate whereafter the ECG was continuously monitored for 30 minutes.
Those cases were considered positive, where within 30 minutes after the aconitine infusion not a single phase of the arrhythmia occurred.
In control animals pretreated i.v. with a 0.9% sodium chloride solution (0.1 ml./100 g.) (n=20) the arrhythmogenic activity of the aconitine nitrate appeared after 2.88±0.32 minutes.
Per cent values of the positive cases, average time of the appearance of the arrhythmia-when the induced arrhythmia appeared within 30 minutes and toxicity values are shown.

For a further data set, the system named is arrhythmia in rats. The data set is described as follows: arrhythmia test carried out in rats according to Zetler and Strubelt (ED125, ED150). The format is in vivo. Conditions: Rattus norvegicus, iv.
A short description of data set [2]: acute intravenous toxicity, method of Litchfield and Wilcoxon. Conditions: mouse, in vivo, iv, mice. The format is in vivo. How it is done:
The acute intravenous (i.v.) toxicity values of the testcompounds was determined by the method of Litchfield and Wilcoxon and as test-animals white mice of both sexes were used (J. of Pharmacol. 1949, 96, 99.).

Experimental for arrhythmia in rats: In cases of compounds having outstanding antiarrhythmic activity ED125 and ED150 values were calculated in arrhythmia test carried out in rats according to Zetler and Strubelt (Arzneim.-Forsch.) Drug.

Regarding `CCN(CC)CCNC(=O)c1ccc(N)cc1` [procainamide, reference compound], the arrhythmia appearance time in data set [1] (8.0 mg/kg i.v.) amounted to 9.5 ± 1.2 min. Moreover, the responders at 8 mg/kg in data set [1] (Rattus norvegicus, iv, 0.5 h, read-out: positive cases, 8.0 mg/kg i.v., 2 min before aconitine, no arrhythmia within 30 min = positive) is 30%. Besides, in the data set with arrhythmia in rats, the ED125 was found to be 11 mg/kg and the ED150 was found to be 14 mg/kg. Besides, in data set [2], the LD50 – broadly, the dose at which mortality reaches 50% – came out at 141 mg/kg.
Consider `CC=Cc1ccc(OC(C)C(=O)NCCCNC(=O)C2=CC(C)(C)NC2(C)C)c(OC)c1` (centres unmarked) [I/22], for which the arrhythmia appearance time in data set [1] (4.0 mg/kg i.v.) is recorded as > 30 min. The responders at 4 mg/kg in data set [1] (Rattus norvegicus, iv, 0.5 h, read-out: positive cases, 4.0 mg/kg i.v., 2 min before aconitine, no arrhythmia within 30 min = positive) is 100%. In the data set with arrhythmia in rats, this compound yielded an ED125 of 1.9 mg/kg and an ED150 of 2.7 mg/kg. The LD50 in data set [2] was found to be 14 mg/kg.
In the case of `CC=Cc1ccc(OCC(=O)NCCCNC(=O)C2=CC(C)(C)NC2(C)C)c(OC)c1` [I/8], the arrhythmia appearance time in data set [1] (3.0 mg/kg i.v.) was > 30 min. The responders at 3 mg/kg in data set [1] (Rattus norvegicus, iv, 0.5 h, read-out: positive cases, 3.0 mg/kg i.v., 2 min before aconitine, no arrhythmia within 30 min = positive) came out at 100%. In the data set with arrhythmia in rats, this compound showed an ED125 of 1.5 mg/kg and an ED150 of 2.2 mg/kg. For the same compound, in data set [2], the LD50 turned out to be 30 mg/kg.
For `C=C[C@H]1C[N@@]2CC[C@H]1C[C@@H]2[C@@H](O)c1ccnc2ccc(OC)cc12` [quinidine, reference compound], the arrhythmia appearance time in data set [1] (9.5 mg/kg i.v.) worked out at 10.0 ± 0.4 min. Further, in data set [1] (Rattus norvegicus, iv, 0.5 h, read-out: positive cases, 9.5 mg/kg i.v., 2 min before aconitine, no arrhythmia within 30 min = positive), the responders at 9.5 mg/kg came to 70%. In the data set on arrhythmia in rats, this compound displayed an ED125 of 7.8 mg/kg and an ED150 of 10.8 mg/kg. In data set [2], this compound returned an LD50 of 95 mg/kg.
